Assay results published in patent US12435067B2, “Truncated itraconazole analogues and methods of use thereof” (University of Connecticut, priority 2019, dated 2025).
Values after ≈ are worked out from the molar mass of the structure shown. Like-named read-outs stand apart in the source and are kept apart here. One block for each compound: values may come before it.

Experiments:
[1] = tested on: Gli1 mRNA expression in the Hh-dependent murine BCC cell line ASZ001; assay: Hh inhibition: Gli1 mRNA expression in ASZ001 cells (qPCR); format: cell-based; details: for IC50: ASZ001 cells
Description: In order to continue SAR exploration of this region of the scaffold, efforts sought to synthesize and evaluate analogues that continue the scaffold truncation that was previously probed by removing the phenyl ring on the ‘right side’ of the scaffold and directly appending the 3-phenolic carboxylic acid of 2 to the piperazine amine to provide analogue 3. This analogue was evaluated for its ability to decrease Gli1 mRNA expression in the Hh-dependent murine BCC cell line ASZ001.
(§1) General protocols for cell culture, qPCR, and Hh inhibition in ASZ001 cells, C3H10T1/2 cells, and Sufu^−/− MEFs cells are as previously described (Pace et al. “Repurposing the clinically efficacious antifungal agent itraconazole as an anticancer chemotherapeutic. J. Med. Chem. 2016, 59, 3635-3649; Maschinot et al. “Synthesis and evaluation of third generation vitamin D3 analogues as inhibitors of Hedgehog signaling.” Eur. J. Med. Chem. 2019, 162, 495-506.). HC-04 cells were maintained in Dulbecco's modified Eagle's medium (Gibco Life Technologies) supplemented with 10% heat-inactivated fetal bovine serum (Gibco) and 1% pen-strep (Gibco) at 37° C. in 5% CO2. Cells were split 1:5 every 2-3 days, once they reached ˜80% confluency. Antiproliferation assay against HC-04 cells was using MTS method. The general protocol was the same as described earlier. (Banerjee et al. “Evaluation of vitamin D3 A-ring analogues as hedgehog pathway inhibitors.” Bioorg. Med. Chem. Lett. 2012, 22, pp. 1330-1334.) All data were analyzed with GraphPad Prism 5 and reported values represent the mean±SEM for at least two separate experiments carried out in triplicate for qPCR assay; or performed for at least three separate experiments carried out in quadruplicate for MTS assay.

[2] = Microsomal stability in human liver microsomes; details: for half-life / microsomal CLint: human; for half-life / microsomal CLint / Microsomal Stability T1/2 / Microsomal Stability Clint: human liver microsomes; for Microsomal Stability Clint: predicted intrinsic clearance
[3] = tested on: Gli1 mRNA in the Hh-dependent mouse embryonic fibroblast C3H10T1/2 cell line; assay: Gli1 mRNA down-regulation in C3H10T1/2 cells (qPCR); format: cell-based; details: Mean ± SEM
Description: (§2) Both metabolites retain potent inhibition of Hh signaling (Table 3). […] Based on the improved activity of the truncated analogue 21, which contains approximately half of the intact ITZ scaffold, this analogue was also evaluated in Sufu^−/− mouse embryonic fibroblasts (MEFs) to determine whether Smo is still the most likely target of the metabolite.
as §1

HC-04 cells = assay: in vitro; format: cell-based, human
Description: (§3) The activity for both metabolites prompted a study of their PK profile (Table 3). […] In addition, significant improvements in solubility at pH 7.4 and pH 4.0 compared to ITZ were found for analogue 21. Finally, the general toxicity of compounds 11 and 21 were evaluated by exploring their anti-proliferative activity in HC-04 cells, a human hepatocyte-derived cell line that abundantly expresses drug metabolizing enzymes (Table 5).
as §1

in vitro = format: cell-based, human; details: human
Description: as §3, §1

[4] = tested on: Sufu−/− mouse embryonic fibroblasts (MEFs); assay: Hh inhibition in Sufu−/− MEFs; format: cell-based
Description: as §2
General protocols for cell culture, qPCR, and Hh inhibition in ASZ001 cells, C3H10T1/2 cells, and Sufu^−/− MEFs cells are as previously described (Pace et al. “Repurposing the clinically efficacious antifungal agent itraconazole as an anticancer chemotherapeutic. J. Med. Chem. 2016, 59, 3635-3649; Maschinot et al. “Synthesis and evaluation of third generation vitamin D3 analogues as inhibitors of Hedgehog signaling.” Eur. J. Med. Chem. 2019, 162, 495-506.). […] (Banerjee et al. “Evaluation of vitamin D3 A-ring analogues as hedgehog pathway inhibitors.” Bioorg. Med. Chem. Lett. 2012, 22, pp. 1330-1334.) All data were analyzed with GraphPad Prism 5 and reported values represent the mean±SEM for at least two separate experiments carried out in triplicate for qPCR assay; or performed for at least three separate experiments carried out in quadruplicate for MTS assay.

[5] = human, microsomes
[6] = Mus musculus, Gli1 mRNA expression, Mean ± SEM of at least two experiments in triplicate, read-out: ASZ001, IC50
[7] = C3H 10T1/2, Gli1 expression up-regulated by recombinant mouse sonic hedgehog (SHh), read-out: C3H10T1/2, IC50, SHh
[8] = Mus musculus, C3H 10T1/2, Gli1 expression up-regulated by oxysterols (OHCs), read-out: C3H10T1/2, IC50, OHCs
[9] = Gli1 mRNA expression, Mean ± SEM of at least two experiments in triplicate, read-out: ASZ001, IC50

Compound: C[C@]1(c2ccc(Cl)cc2Cl)OC[C@@H](COc2ccc(N3CCN(C(=O)c4ccncc4)CC3)cc2)O1 [Compound 7]
- IC50 [1, 6]: 570 nM

Compound: C[C@]1(c2ccc(Cl)cc2Cl)OC[C@@H](COc2ccc(N3CCN(C(=O)CCc4ccc(O)cc4)CC3)cc2)O1 [Compound 13]
- IC50 [1, 6]: 260 ± 30 nM

Compound: C[C@@]1(c2ccc(Cl)cc2Cl)OCC(COc2ccc(N3CCN(C(=O)N/N=C/c4cccc(O)c4)CC3)cc2)O1 (some centres unmarked) [Compound 20]
- less active (Hh inhibition) ([1]; 2R,4R-trans 20 compared with cis 18, ASZ001): approximately 5 fold
- IC50 [1, 6]: 580 nM

Compound: C[C@]1(c2ccc(Cl)cc2Cl)OC[C@@H](COc2ccc(N3CCN(C(=O)CCc4cccc(O)c4)CC3)cc2)O1 [Compound 11]
- IC50 [3, 7]: 170 ± 90 nM
- IC50 [3, 8]: 650 ± 70 nM
- IC50 ([1]; Mus musculus, read-out: IC50 value (anti-Hh activity)): 81 nM
- IC50 [1, 6]: 81 nM
- GI50 (HC-04 cells; human): 13200 nM
- GI50 (in vitro): 13200 ± 500 nM
- Solubility, PBS pH 4.0 (PBS solubility): 0.13 μM
- Solubility, PBS pH 7.4 (PBS solubility): 0.03 μM
- Microsomal Stability T1/2 [2]: 3.2 min
- Microsomal Stability Clint [2]: 218 ± 9.7 µL/min/mg

Compound: C[C@]1(c2ccc(Cl)cc2Cl)OCC(COc2ccc(N3CCN(CCCc4cccc(O)c4)CC3)cc2)O1 (some centres unmarked) [Compound 23]
- IC50 [1, 6]: 870 nM
- solubility (PBS solubility; pH 4, aqueous buffer): 0.13 µM (≈ 0.0725 µg/mL)
- solubility (PBS solubility; pH 7.4, aqueous buffer): 0.02 µM (≈ 0.0112 µg/mL)
- half-life [2]: 14 min
- microsomal CLint [2]: 50 ± 0.8 µL/min/mg

Compound: Itraconazole [ITZ, reference compound]
- IC50 ([3]; Gli1 expression up-regulated by oxysterols (OHCs), read-out: C3H10T1/2, IC50, OHCs): 5900 ± 1300 nM
- IC50 ([3]; Gli1 expression up-regulated by recombinant mouse sonic hedgehog (SHh), read-out: C3H10T1/2, IC50, SHh): 240 ± 200 nM
- IC50 [1, 9]: 140 ± 20 nM
- GI50 (HC-04 cells): > 50000 nM
- Solubility, PBS pH 7.4: 0.80 μM
- Microsomal Stability T1/2 [5]: 27.0 ± 6.2 min

Compound: N-(4-(4-(((2S,4R)-2-(2,4-Dichlorophenyl)-2-Methyl-1,3-Dioxolan-4-yl)Methoxy)Phenyl)Piperazin-l-yl)-2-((4-hydroxyphenyl)methylene)Hydrazinecarboxamide [Compound 19]
- IC50 [1, 9]: 960 nM
- Solubility, PBS pH 4.0 (pH 4): 0.05 μM
- Solubility, PBS pH 7.4: 0.02 μM
- Microsomal Stability T1/2 [5]: 11.4 ± 0.2 min

Compound: C[C@]1(c2ccc(Cl)cc2Cl)OC[C@@H](COc2ccc(N3CCN(C(=O)c4cccnc4)CC3)cc2)O1 [Compound 6]
- IC50 [1, 6]: 1300 ± 310 nM

Compound: C[C@]1(c2ccc(Cl)cc2Cl)OC[C@@H](COc2ccc(N3CCN(C(=O)c4ccccn4)CC3)cc2)O1 [Compound 5]
- IC50 [1, 6]: 1420 ± 300 nM

Compound: CS(=O)(=O)c1ccc(C(=O)Nc2ccc(Cl)c(-c3ccccn3)c2)c(Cl)c1 [Vismodegib, reference compound]
- IC50 [3, 7]: 22 ± 20 nM
- IC50 [3, 8]: 10 ± 12 nM
- GI50 (in vitro): > 100000 nM

Compound: C[C@]1(c2ccc(Cl)cc2Cl)OC[C@@H](COc2ccc(N3CCN(C(=O)c4ccc(N)cc4)CC3)cc2)O1 [Compound 9]
- IC50 [1, 6]: 280 nM

Compound: C[C@]1(c2ccc(Cl)cc2Cl)OC[C@@H](COc2ccc(N3CCN(C(=O)c4cccc(O)c4)CC3)cc2)O1 [Compound 3]
- IC50 [1, 6]: 260 nM
- Solubility, PBS pH 4.0 (PBS solubility): 0.31 μM
- Solubility, PBS pH 7.4 (PBS solubility): 0.17 μM
- Microsomal Stability T1/2 [2]: 15.9 ± 0.2 min
- Microsomal Stability Clint [2]: 43 ± 0.6 µL/min/mg

Compound: C[C@]1(c2ccc(Cl)cc2Cl)OC[C@@H](COc2ccc(N3CCN(C(=O)/C=C/c4ccc(O)cc4)CC3)cc2)O1 [Compound 14, 4-Hydroxy-N-(4-(4-(((2S,4R)-2-(2,4-Dichlorophenyl)-2-Methyl-1,3-Dioxolan-4-yl)Methoxy)Phenyl)Piperazin-1-yl)Cinnamamide]
- IC50 [1, 6]: 360 ± 50 nM

Compound: COc1cccc(CCC(=O)N2CCN(c3ccc(OC[C@@H]4CO[C@](C)(c5ccc(Cl)cc5Cl)O4)cc3)CC2)c1 [Compound 16]
- IC50 [1, 6]: 460 nM

The next lines start with results.

- IC50 [1, 6]: 160 nM
Compound: C[C@]1(c2ccc(Cl)cc2Cl)OC[C@@H](COc2ccc(N3CCN(C(=O)c4ccc([N+](=O)[O-])cc4)CC3)cc2)O1 [Compound 8]

- IC50 [1, 6]: 220 ± 30 nM
Compound: C[C@]1(c2ccc(Cl)cc2Cl)OC[C@@H](COc2ccc(N3CCN(C(=O)/C=C/c4cccc(O)c4)CC3)cc2)O1 [Compound 12]
- loss in Hh inhibitory activity ([1]; trans-alkene 12 compared with 11, ASZ001): approximately 3 fold

- IC50 [1, 6]: 89 nM
- solubility (PBS solubility; pH 7.4, aqueous buffer): 0.84 µM (≈ 0.494 µg/mL)
- half-life [2]: 6.6 min
- microsomal CLint [2]: 104.7 ± 0.1 µL/min/mg
Compound: C[C@]1(c2ccc(Cl)cc2Cl)OCC(COc2ccc(N3CCN(C(=O)CCc4ccc(O)c(O)c4)CC3)cc2)O1 (some centres unmarked) [Compound 22]

- IC50 [1, 6]: 22 nM
- GI50 (HC-04 cells; human): 27300 nM
- Solubility, PBS pH 4.0 (PBS solubility): 169.3 μM
- Solubility, PBS pH 7.4 (PBS solubility): 11.7 μM
- Microsomal Stability T1/2 [2]: 50.7 min
- Microsomal Stability Clint [2]: 13.7 ± 0.4 µL/min/mg
Compound: C[C@]1(c2ccc(Cl)cc2Cl)OC[C@@H](COc2ccc(N3CCNCC3)cc2)O1 [Compound 21, 1-(4-(((2S,4R)-2-(2,4-Dichlorophenyl)-2-Methyl-1,3-Dioxolan-4-yl)Methoxy)Phenyl)Piperazine]
- IC50 [3, 7]: 1530 ± 200 nM
- IC50 [3, 8]: 2700 ± 200 nM
- anti-Hh activity in Sufu−/− MEFs [4]: completely abolished

- IC50 [1, 6]: 230 nM
Compound: C[C@]1(c2ccc(Cl)cc2Cl)OC[C@@H](COc2ccc(N3CCN(C(=O)CCc4ccccc4)CC3)cc2)O1 [Compound 15]

- IC50 [1, 6]: 380 ± 40 nM
- Solubility, PBS pH 4.0 (PBS solubility): 0.25 μM
- Solubility, PBS pH 7.4 (PBS solubility): 0.13 μM
- more stable (HLM stability) ([2]; 10 compared with 11, human liver microsomes): approximately 6.5 fold
- Microsomal Stability T1/2 [2]: 20.4 ± 0.4 min
- Microsomal Stability Clint [2]: 33.9 ± 0.6 µL/min/mg
Compound: C[C@]1(c2ccc(Cl)cc2Cl)OC[C@@H](COc2ccc(N3CCN(C(=O)Cc4cccc(O)c4)CC3)cc2)O1 [Compound 10]

- IC50 [1, 6]: 470 nM
Compound: C[C@]1(c2ccc(Cl)cc2Cl)OC[C@@H](COc2ccc(N3CCN(C(=O)CCCc4ccc(O)cc4)CC3)cc2)O1 [Compound 17, 4-Hydroxy-N-(4-(4-(((2S,4R)-2-(2,4-Dichlorophenyl)-2-Methyl-1,3-Dioxolan-4-yl)Methoxy)Phenyl)Piperazin-1-yl)Phenylbutyric Amide]

- IC50 [1, 9]: 120 nM
Compound: N-(4-(4-(((2S,4R)-2-(2,4-Dichlorophenyl)-2-Methyl-1,3-Dioxolan-4-yl)Methoxy)Phenyl)Piperazin-l-yl)-2-((3-hydroxyphenyl)methylene)Hydrazinecarboxamide [Compound 18]

- IC50 [1, 6]: 580 nM
Compound: C[C@]1(c2ccc(Cl)cc2Cl)OC[C@@H](COc2ccc(N3CCN(C(=O)c4ccc(O)cc4)CC3)cc2)O1 [Compound 4]
